Each block holds one compound with its values, some of them ahead of it.
Assays:
[1] = Weights of fibers with liquid membranes as a function of time and storing condition; type: physicochemical
[2] = supported liquid membranes of WO 02/088672; cited from earlier work
[3] = Extraction ability and storage stability of supported liquid membranes on hollow fibers (in words); type: physicochemical; details: polypropylene fibers, after 30 days of storage at room temperature
Method: The liquid membrane was formed by dipping the hollow fiber into the organic solvent for 5 to 30 sec to allow the solvent to penetrate into the pores of the fiber. Then acceptor solution was introduced into the lumen of the fiber using a syringe. The acceptor solution was 10 mM HCl, having a pH of 2. Extraction ability was tested by immersing the hollow fibers with their supported liquid membranes into a sample vial containing 4 mL of a solution containing 5 basic drugs, at a pH of 12, with stirring, and allowing the analytes to equilibrate across the liquid membranes to the acceptor solution within (25 μl 10 mM HCl). After allowing the sample analytes sufficient time to reach equilibration with the acceptor solution, about 15 to 60 minutes, the acceptor solution was withdrawn from the hollow fibers, and the concentration of analytes was determined using capillary electrophoresis.
Experiments were performed using polypropylene and polysulfone hollow fibers, testing the effectiveness and stability of liquid membranes comprising fatty oils in the extraction of analytes from samples after storage of the fibers for 30 days prior to use. Supported liquid membranes were established on the hollow fibers using the procedures described in Example 1 above, but substituting the following oils for the organic solvents tested in Example 1: tributyrin, soya oil, or olive oil. […]

Weight (mg) of fibers ([1]; DDA table, closed container, Day 0): 42.40 mg
Weight (mg) of fibers ([1]; DDA table, closed container, Day 3): 42.14 mg
Weight (mg) of fibers ([1]; DDA table, closed container, Day 10): 42.12 mg
Weight (mg) of fibers ([1]; DDA table, open to the air, Day 0): 45.94 mg
Weight (mg) of fibers ([1]; DDA table, open to the air, Day 2): 43.92 mg
Weight (mg) of fibers ([1]; DDA table, open to the air, Day 5): 41.70 mg
Compound: CCCCCCCCCCCCOC(C)=O [DDA, dodecyl acetate]

Weight (mg) of fibers ([1]; MA table, closed container, Day 0): 38.76 mg
Weight (mg) of fibers ([1]; MA table, closed container, Day 4): 38.72 mg
Weight (mg) of fibers ([1]; MA table, open to the air, Day 0): 41.36 mg
Weight (mg) of fibers ([1]; MA table, open to the air, Day 4): 40.90 mg
Compound: CCCCCCCCCCCCCC(=O)OC(C)=O [MA, myristoyl acetate]

Compound: CCCCCCCCOc1ccccc1[N+](=O)[O-] [NPOE, nitropheyloctyl ether]
Membrane lifetime [2]: 10 to 20 days

Extraction performance [3]: extracted analytes
Compound: CCCC(=O)OCC(COC(=O)CCC)OC(=O)CCC [tributyrin]
